Results as given in patent publication US6716836B2, “Non-nucleoside reverse transcriptase inhibitors” (Boehringer Ingelheim (Canada) Ltd., priority 2001, dated 2004).

Columns and labels:
[1] = test system: HIV replication in T-lymphocytes, virus coding for wild type enzyme; experiment: ELISA (p24) assay for activity in cell culture, wild type virus; type: cell-based; conditions: Human immunodeficiency virus 1, T-lymphocyte, read-out: EC50 WT RT
Experimental: (§1) ELISA Assay for Assessment of Activity in Cell Culture
(§2) Compounds of the invention were tested for their ability to inhibit HIV replication in cell culture. Viruses coding for Wild type and mutant enzymes were used. T-lymphocytes were infected with the virus, infected cells were incubated in the presence of varying amounts of compounds of the invention, and an ELISA assay for the viral protein p24 was used to quantify viral replication. Table 9 lists the results as EC50 (nM).

[2] = test system: HIV replication in T-lymphocytes, virus coding for mutant enzyme K103N/Y181C; experiment: ELISA (p24) assay for activity in cell culture, mutant virus; type: cell-based; conditions: Human immunodeficiency virus 1, T-lymphocyte, read-out: EC50 K103N/Y181C
Experimental: as §1, §2

[3] = biological target: T1, HIV-1 RT double mutant K103N/Y181C (Human immunodeficiency virus type 1 group M subtype B, UniProt P04585, K690N/Y768C); experiment: Reverse Transcriptase (RT) assay, double mutant enzyme; type: biochemical
T1 construct: Heterodimeric RT was eluted using a descending gradient; made in house; host or cells: E. coli (inferred; the text describes only wild type and Y181C preparations)
Source text: (§3) Among the enzymes for which Human Immunodeficiency Virus (HIV-1) encodes is a reverse transcriptase (1), so-named because it transcribes a DNA copy from an RNA template. This activity can be quantitatively measured in a cell-free enzyme assay, which has been previously described (2), and is based upon the observation that reverse transcriptase is able to use a synthetic template poly r(C) primed with oligo d(G) to transcribe a radio-labelled, acid-precipitable DNA strand utilising ^3H-dGTP as a substrate. The assay described below utilises the wild type (WT) enzyme, which is the predominant form of the enzyme observed with patients infected with HIV-1. Utilisation of mutant RT enzymes (for example, Y181C, prepared by site-directed mutagenesis in which the tyrosine residue at codon 181 has been replaced by a cysteine residue, or the mutants K103N, V106A and Y188C) and analogous assay conditions allows compounds to be evaluated for their effectiveness at inhibiting the mutant enzymes.
(§4) The HIV-1 RT expression clone, pKRT2, was obtained from Yale University (3). An overnight culture, grown in 2×YT medium (37° C., 225 rpm) (4), supplemented with 100 μg/mL ampicillin for positive selection was used to inoculate the 2×YT medium. The culture was incubated (37° C., 225 rpm) until it reached an OD600 of 0.6-0.9. At that time, the repressor inhibitor IPTG (isopropyl P-D-thiogalactopyranoside) was added to 0.5 mM, and the mixture was incubated for an additional 2 hours.
(§5) Purification of recombinant reverse transcriptase was performed using a combination of methods previously described (5). This procedure is summarised briefly as follows: E. Coli containing RT-1 wt or RT-1 (Y181 C) were suspended in 50 mM MES, pH 6.0 containing 10% glycerol, lysed in a French press, centrifuged, and the supernates discarded. Lysate pellets were extracted with buffer A (50 mM MES, pH 6.0, 100 mM KCl, 50 mM KPi, 10% glycerol, 0.02% hexyl-β-glucoside), and re-centrifuged; nucleic acid in supernates was precipitated with 0.1% polyethylenimine. […] Bound RT was eluted with a gradient of 0 to 1.0M
(§6) (NH4)2 SO4 in buffer B. Heparin-Sepharose fractions containing RT were concentrated (Amicon YM-30 membrane), combined with equal volumes of 2.0M (NH4)2SO4 in buffer B and injected onto a 21.5×150 mm TSK Phenyl-5PW HIC HPLC column (Phenomenex). Heterodimeric RT was eluted using a descending gradient of 1.0M to 0M (NH4)2SO4 in buffer B, concentrated, and stored at 4° C.
(§7) The 2.4× concentrated stock reaction mixture was aliquoted and stored at −20° C. The mixture is stable and can be thawed for use in each assay. This enzyme assay has been adapted to a 96 well microtiter plate system, and has been previously described (6). Tris buffer (50 mM, pH 7.8), vehicle (solvent diluted to match the compound dilution), or compounds in vehicle were dispensed into 96-well microtiter plates (10 μL/well; 3 wells/compound). The HIV-1 RT enzyme was thawed, diluted in 50 mM Tris pH 7.8 containing 0.05% Chaps to give 1.5 nM enzyme and 25 μL were dispensed per well. Ten μL of 0.5M EDTA were added to the first three wells of the microtiter plate. EDTA chelates the Mg^2+ present and prevents reverse transcription. This group served as background polymerisation, which was subtracted, from all other groups. Twenty-five μl of the 2.4× reaction mixture was added to all wells and the assay was allowed to incubate at room temperature for 30 minutes. The assay was terminated by precipitating the DNA in each well with 60 μL of sodium pyrophosphate (2% w/v) in 10% trichloroacetic acid (TCA) (10% w/v). The microtiter plate was incubated for 15 minutes at 4° C. and the precipitate was harvested onto #30 glass fibre paper (Schleicher & Schuell) using a Tomtech 96-well harvester. The filters were dried, placed in plastic bags with Betaplate scintillation cocktail (Pharmacia/LKB) and counted in the Betaplate counter (Pharmacia/LKB).
(§8) The calculation for percent inhibition is as follows: [formula] […]

HIV-1 RT wild type (WT) = biological target: T2, HIV-1 RT wild type (WT) (Human immunodeficiency virus type 1 group M subtype B, UniProt P04585); experiment: Reverse Transcriptase (RT) assay, wild type enzyme; type: biochemical
T2 construct: Heterodimeric RT was eluted using a descending gradient; made in house; host or cells: E. coli
Source text: as §3, §4, §5, §6, §7, §8

SMILES | EC50 [1] | EC50 [2] | IC50 [3] | IC50 (HIV-1 RT wild type (WT))
CCN1c2ncc(CCOc3cccc4c3CS(=O)(=O)N4)cc2C(=O)Nc2c(C)cc(F)nc21 [Compound 110] | < 100 nM | < 100 nM | 100 to 1000 nM | < 100 nM
CCN1c2ncc(CCOc3cccc4c3CCS(=O)(=O)N4)cc2C(=O)Nc2c(C)cc(F)nc21 [Compound 602] | < 100 nM | < 100 nM | < 100 nM | < 100 nM
CCN1c2ncc(CCOc3cccc4c3CCS(=O)(=O)N4CCCC(=O)NNCC(F)(F)F)cc2C(=O)N(C)c2cccnc21 [Compound 640] | < 100 nM | < 100 nM | < 100 nM | < 100 nM
CCN1c2ncc(CCOc3cccc4c3CCS(=O)(=O)N4)cc2C(=O)N(C)c2cccnc21 [Compound 601] | < 100 nM | < 100 nM | < 100 nM | < 100 nM
CCN1c2ncc(CCOc3cccc4c3CNS4(=O)=O)cc2C(=O)Nc2c(C)cc(F)nc21 [Compound 223] | < 100 nM | < 100 nM | < 100 nM | < 100 nM
CCN1c2ncc(CCOc3cccc4c3CS(=O)(=O)N4CC(C)C(=O)O)cc2C(=O)N(C)c2cccnc21 (stereo not drawn) [Compound 138] | < 100 nM | < 100 nM | < 100 nM | < 100 nM
CCN1c2ncc(CCOc3cccc4c3CCS(=O)(=O)N4CC(=O)OC)cc2C(=O)N(C)c2cccnc21 [Compound 616] | < 100 nM | < 100 nM | < 100 nM | < 100 nM
CCN1c2ncc(CCOc3cccc4c3C=CS(=O)(=O)N4C)cc2C(=O)Nc2c(C)ccnc21 [Compound 804] | < 100 nM | < 100 nM | < 100 nM | < 100 nM
CCN1c2ncc(CCOc3cccc4c3CCS(=O)(=O)N4CC(=O)NS(C)(=O)=O)cc2C(=O)N(C)c2cccnc21 [Compound 631] | 100 to 1000 nM | 100 to 1000 nM | < 100 nM | < 100 nM
CCN1c2ncc(CCOc3ccc4c(c3)C(C)(C)NS4(=O)=O)cc2C(=O)Nc2c(C)ccnc21 [Compound 311] | < 100 nM | < 100 nM | 100 to 1000 nM | < 100 nM
CCN1c2ncc(CCOc3cccc4c3CS(=O)(=O)N4CC(=O)O)cc2C(=O)N(C)c2cccnc21 [Compound 127] | < 100 nM | 100 to 1000 nM | 100 to 1000 nM | < 100 nM
CCOC(=O)CCCN1c2cccc(OCCc3cnc4c(c3)C(=O)N(C)c3cccnc3N4CC)c2CCS1(=O)=O [Compound 628] | < 100 nM | < 100 nM | < 100 nM | < 100 nM
CCN1c2ncc(CCOc3cccc4c3CS(=O)(=O)N4CCO)cc2C(=O)N(C)c2cccnc21 [Compound 129] | < 100 nM | < 100 nM | < 100 nM | < 100 nM
CCN1c2ncc(CCOc3cccc4c3CS(=O)(=O)N4Cc3cc[n+]([O-])cc3)cc2C(=O)N(C)c2cccnc21 [Compound 130] | < 100 nM | < 100 nM | < 100 nM | < 100 nM
CCN1c2ncc(CCOc3cccc4c3CS(=O)(=O)N4Cc3cccnc3)cc2C(=O)N(C)c2cccnc21 [Compound 131] | < 100 nM | < 100 nM | < 100 nM | < 100 nM
CCN1c2ncc(CCOc3cccc4c3CS(=O)(=O)N4Cc3ccc[n+]([O-])c3)cc2C(=O)N(C)c2cccnc21 [Compound 132] | < 100 nM | < 100 nM | < 100 nM | < 100 nM
CCN1c2ncc(CCOc3cccc4c3CCN(CCCC(=O)NN)S4(=O)=O)cc2C(=O)N(C)c2cccnc21 [Compound 714] | < 100 nM | < 100 nM | < 100 nM | < 100 nM
CCN1c2ncc(CCOc3cccc4c3CCS(=O)(=O)N4CC(=O)NC(C)(C)C(=O)O)cc2C(=O)N(C)c2cccnc21 [Compound 637] | < 100 nM | < 100 nM | < 100 nM | < 100 nM
